Experimental data published in patent US20080221158A1, “Novel 14 and 15 Membered Ring Compounds” (PLIVA - Istrazivacki Institut d.o.o, priority 2003, published 2008).

Key:
Experiment in all cases: MIC against various organisms (broth dilution)
Assay type in all cases: cell-based
[1] = system: M. catarrhalis ATCC 23246; details: Moraxella catarrhalis, ATCC23246
Procedure: (§1) Using a standard broth dilution method in microtitre, compounds were tested for antibacterial activity. The compounds in the above examples gave minimum inhibitory concentrations (MICS) less than 1 microgram per millilitre against erythromycin-sensitive and erythromycin-resistant strains of Streptococcus pneumoniae and Streptococcus pyogenes.
(§2) In addition, the MIC (1 μg/mL) of test compounds against various organisms was determined including:
(§3) S. aureus Smith ATCC 13709, S. pnetnioniae SP030, S. pyogenes 3565, E. faecalis ATCC 29212, H. influenza ATCC 49247, M. catarrhalis ATCC 23246.

[2] = system: S. pneumoniae SP030; details: Streptococcus pneumoniae
Procedure: as §1, §2, §3

[3] = system: E. faecalis ATCC 29212; details: Enterococcus faecalis, ATCC29212
Procedure: as §1, §2, §3

[4] = system: S. aureus Smith ATCC 13709; details: Staphylococcus aureus, ATCC13709
Procedure: as §1, §2, §3

[5] = system: H. influenzae ATCC 49247; details: Haemophilus influenzae, ATCC49247
Procedure: as §1, §2, §3

[6] = system: S. pyogenes 3565; details: Streptococcus pyogenes
Procedure: as §1, §2, §3

**Q.** With `CC[C@H]1OC(=O)[C@H](C)[C@@H](O[C@H]2C[C@@](O)(OC)[C@@H](NC(=O)CCOCCNc3cc4c(=O)c(C(=O)O)cn(C5CC5)c4cc3Cl)[C@H](C)O2)[C@H](C)[C@@H](OC2O[C@H](C)C[C@H](N(C)C)[C@H]2O)[C@](C)(O)C[C@@H](C)CN(C)[C@H](C)[C@@H](O)[C@]1(C)O` (stereo partly drawn) [Example 1] as the compound, how does the MIC [1] read?
**A.** < 2 µg/mL

**Q.** And the MIC [2]?
**A.** < 1 µg/mL

**Q.** What about the MIC [3] of the same compound?
**A.** < 1 µg/mL

**Q.** And the MIC [4]?
**A.** < 1 µg/mL

**Q.** What about the MIC [5] of the same compound?
**A.** < 2 µg/mL

**Q.** What about the MIC [6] of the same compound?
**A.** < 1 µg/mL

**Q.** Which results are given for `CC[C@H]1OC(=O)[C@H](C)[C@@H](O[C@H]2C[C@@](O)(OC)[C@@H](NC(=O)CCOCCNc3cc4c(=O)c(C(=O)O)cn(C5CC5)c4cc3Cl)[C@H](C)O2)[C@H](C)[C@@H](O[C@@H]2O[C@H](C)C[C@H](N(C)C)[C@H]2O)[C@](C)(O)C[C@@H](C)CN(C)[C@H](C)[C@@H](O)[C@]1(C)O` [Example 2]?
**A.** MIC [1]: < 2 µg/mL; MIC [2]: < 1 µg/mL; MIC [3]: < 1 µg/mL; MIC [4]: < 1 µg/mL; MIC [5]: < 2 µg/mL; MIC [6]: < 1 µg/mL

**Q.** Which MIC [1] does the source give for `CC[C@@H]1OC(=O)[C@H](C)[C@H](O[C@@H]2C[C@@](O)(OC)[C@@H](NC(=O)CCOCCOc3cc4c(=O)c(C(=O)O)cn(C5CC5)c4cc3Cl)[C@H](C)O2)[C@@H](C)[C@H](O[C@@H]2O[C@H](C)C[C@H](N(C)C)[C@@H]2O)[C@](C)(O)C[C@H](C)CN(C)[C@H](C)[C@@H](O)[C@]1(C)O` [Example 3, 4″-(S)-(3-[2-(3-Carboxy-7-chloro-1-cyclopropyl-4-oxo-1,4-dihydro-quinolin-6-yloxy)ethoxy]-propionylamino]-4″-deoxyazithromycin] here?
**A.** < 2 µg/mL

**Q.** And the MIC [2]?
**A.** < 1 µg/mL

**Q.** What about the MIC [3] of the same compound?
**A.** < 1 µg/mL

**Q.** What about the MIC [4] of the same compound?
**A.** < 1 µg/mL

**Q.** And the MIC [5]?
**A.** < 2 µg/mL

**Q.** What about the MIC [6] of the same compound?
**A.** < 1 µg/mL
